Results: patent US20210269451A1, “PYRIDINYL HETEROCYCLYL COMPOUNDS FOR THE TREATMENT OF AUTOIMMUNE DISEASE” (Hoffmann-La Roche Inc., priority 2018, published 2021)

These compounds were tested against T1, human TLR7 (Homo sapiens, UniProt Q9NYK1) (assay: HEK293-Blue-hTLR-7 cells assay). Conditions: HEK293-Blue-hTLR7 cells, R848 stimulation, 20 hrs, SEAP reporter; read-out: HEK/hTLR7 IC50.
T1 construct: host or cells: HEK293-Blue-hTLR-7 (HEK293)
T1 sequence (Q9NYK1 27-1049): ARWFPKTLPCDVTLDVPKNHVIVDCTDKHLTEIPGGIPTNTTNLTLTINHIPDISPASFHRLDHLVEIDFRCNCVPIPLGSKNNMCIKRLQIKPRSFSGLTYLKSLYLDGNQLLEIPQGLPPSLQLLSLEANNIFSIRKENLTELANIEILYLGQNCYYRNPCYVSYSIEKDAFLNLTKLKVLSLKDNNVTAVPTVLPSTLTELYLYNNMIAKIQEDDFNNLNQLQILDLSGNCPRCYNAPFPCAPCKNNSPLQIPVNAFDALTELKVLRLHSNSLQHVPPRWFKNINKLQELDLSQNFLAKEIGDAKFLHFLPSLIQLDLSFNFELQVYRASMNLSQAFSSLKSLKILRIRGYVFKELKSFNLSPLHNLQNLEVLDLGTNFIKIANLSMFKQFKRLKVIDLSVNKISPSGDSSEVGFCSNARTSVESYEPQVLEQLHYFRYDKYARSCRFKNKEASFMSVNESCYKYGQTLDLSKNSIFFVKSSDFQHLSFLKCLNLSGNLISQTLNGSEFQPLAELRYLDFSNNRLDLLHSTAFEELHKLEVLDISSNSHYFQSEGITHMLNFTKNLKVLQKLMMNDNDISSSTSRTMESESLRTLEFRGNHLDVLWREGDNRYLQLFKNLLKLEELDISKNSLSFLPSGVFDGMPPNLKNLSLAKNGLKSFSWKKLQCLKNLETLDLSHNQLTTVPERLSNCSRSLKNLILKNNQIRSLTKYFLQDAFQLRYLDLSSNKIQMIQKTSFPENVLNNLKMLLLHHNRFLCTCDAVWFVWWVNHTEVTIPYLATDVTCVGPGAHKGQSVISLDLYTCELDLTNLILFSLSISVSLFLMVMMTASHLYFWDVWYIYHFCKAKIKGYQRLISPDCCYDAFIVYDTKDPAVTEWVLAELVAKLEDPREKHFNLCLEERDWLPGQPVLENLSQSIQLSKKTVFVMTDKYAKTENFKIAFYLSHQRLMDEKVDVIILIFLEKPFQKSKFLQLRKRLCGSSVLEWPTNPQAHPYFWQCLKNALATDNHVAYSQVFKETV
Type: cell-based
Procedure: The following tests were carried out in order to determine the activity of the compounds of formula (I) and (Ia) in HEK293-Blue-hTLR-7/8/9 cells assay.
HEK293-Blue-hTLR-7 cells assay:
A stable HEK293-Blue-hTLR-7 cell line was purchased from InvivoGen (Cat. #: hkb-htlr7, San Diego, Calif., USA). These cells were originally designed for studying the stimulation of human TLR7 by monitoring the activation of NE-κB. A SEAP (secreted embryonic alkaline phosphatase) reporter gene was placed under the control of the IFN-β minimal promoter fused to five NE-κB and AP-1-binding sites. The SEAP was induced by activating NE-κB and AP-1 via stimulating HEK-Blue hTLR7 cells with TLR7 ligands. Therefore the reporter expression was declined by TLR7 antagonist under the stimulation of a ligand, such as R848 (Resiquimod), for incubation of 20 hrs. The cell culture supernatant SEAP reporter activity was determined using QUANTI-Blue™ kit (Cat. #: rep-qbl, Invivogen, San Diego, Ca, USA) at a wavelength of 640 nm, a detection medium that turns purple or blue in the presence of alkaline phosphatase.
HEK293-Blue-hTLR7 cells were incubated at a density of 250,000-450,000 cells/mL in a volume of 170 μL in a 96-well plate in Dulbecco's Modified Eagle's medium (DMEM) containing 4.5 g/L glucose, 50 U/mL penicillin, […], […], 2 mM L-glutamine, 10% (v/v) heat-inactivated fetal bovine serum with addition of 20 μL test compound in a serial dilution in the presence of final DMSO at 1% and 10 μL of 20 uM R848 in above DMEM, perform incubation under 37° C. in a CO2 incubator for 20 hrs. Then 20 μL of the supernatant from each well was incubated with 180 μL Quanti-blue substrate solution at 37° C. for 2 hrs and the absorbance was read at 620˜655 nm using a spectrophotometer. The signalling pathway that TLR7 activation leads to downstream NE-κB activation has been widely accepted, and therefore similar reporter assay was modified for evaluating TLR7 antagonist.

Row | SMILES | IC50 [nM]
1 | Cc1cc(N2CC3(CN(C[C@H]4CN(c5ccc(C#N)c6ncccc56)C[C@@H](C)O4)C3)C2)cc(CO)n1 [Example 1, 5-[(2S,6R)-2-[[2-[2-(hydroxymethyl)-6-methyl-4-pyridyl]-2,6-diazaspiro[3.3]heptan-6-yl]methyl]-6-methyl-morpholin-4-yl]quinoline-8-carbonitrile] | 28
2 | Cc1cc(NC2CCN(C[C@H]3CN(c4ccc(C#N)c5ncccc45)C[C@@H](C)O3)CC2)cc(CO)n1 [Example 5] | 59
3 | Cc1cc(NC2CCN(C[C@H]3CN(c4ccc(C#N)c5ncccc45)C[C@@H](C)O3)C2)cc(CO)n1 (stereo partly drawn) [Example 6] | 44
4 | Cc1cc(N2C[C@H]3CN(C[C@H]4CN(c5ccc(C#N)c6ncccc56)C[C@@H](C)O4)C[C@H]3C2)cc(CO)n1 [Example 10] | 57
5 | C[C@@H]1CN(c2ccc(C#N)c3ncccc23)C[C@H](CNC2CCN(c3ccnc(N)c3)CC2)O1 [Example 20, 5-[(2S,6R)-2-[[[1-(2-amino-4-pyridyl)-4-piperidyl]amino]methyl]-6-methyl-morpholin-4-yl]quinoline-8-carbonitrile] | 200
6 | C[C@@H]1CN(c2ccc(C#N)c3ncccc23)C[C@H](CN[C@@H]2CCCN(c3ccnc(N)c3)C2)O1 [Example 21, 5-[(2S,6R)-2-[[[(3R)-1-(2-amino-4-pyridyl)-3-piperidyl]amino]methyl]-6-methyl-morpholin-4-yl]quinoline-8-carbonitrile] | 62
7 | C[C@@H]1CN(c2ccc(C#N)c3ncccc23)C[C@H](CN[C@H]2CCCN(c3ccnc(N)c3)C2)O1 [Example 22] | 37
8 | Cc1cc(N2CCC(NC[C@H]3CN(c4ccc(C#N)c5ncccc45)C[C@@H](C)O3)CC2)cc(CO)n1 [Example 23] | 229
9 | Cc1cc(N2CCC[C@@H](NC[C@H]3CN(c4ccc(C#N)c5ncccc45)C[C@@H](C)O3)C2)cc(CO)n1 [Example 24] | 26
10 | Cc1cc(N2CCC[C@H](NC[C@H]3CN(c4ccc(C#N)c5ncccc45)C[C@@H](C)O3)C2)cc(CO)n1 [Example 25] | 34
11 | Cc1cc(N2CC[C@@H](NC[C@H]3CN(c4ccc(C#N)c5ncccc45)C[C@@H](C)O3)C2)cc(CO)n1 [Example 28] | 122
12 | Cc1cc(N2CC[C@H](NC[C@H]3CN(c4ccc(C#N)c5ncccc45)C[C@@H](C)O3)C2)cc(CO)n1 [Example 29] | 156
13 | Cc1cc(N2CC(NC[C@H]3CN(c4ccc(C#N)c5ncccc45)C[C@@H](C)O3)C2)cc(CO)n1 [Example 30] | 65
14 | Cc1cc(N2CC(N(C)C[C@H]3CN(c4ccc(C#N)c5ncccc45)C[C@@H](C)O3)C2)cc(CO)n1 [Example 37] | 34
15 | Cc1cc(N2CCC[C@H](N(C)C[C@H]3CN(c4ccc(C#N)c5ncccc45)C[C@@H](C)O3)C2)cc(CO)n1 [Example 38] | 35

Continued, values first:

Row | IC50 [nM] | SMILES
16 | < 3 | Cc1cc(N2CCOC3CN(CC4CN(c5ccc(C#N)c6ncccc56)CC(C)O4)CC32)cc(C)n1 (single isomer, unassigned) [Example 17A]
17 | 11 | Cc1cc(N2CCOC3CN(CC4CN(c5ccc(C#N)c6ncccc56)CC(C)O4)CC32)cc(C)n1 (single isomer, unassigned) [Example 17B]
18 | < 3 | C[C@@H]1CN(c2ccc(C#N)c3ncccc23)C[C@H](CN2CC3(C2)CN(c2ccnc(C4CC4)c2)CCO3)O1 [Example 3, 5-[(2S,6R)-2-[[8-(2-cyclopropyl-4-pyridyl)-5-oxa-2,8-diazaspiro[3.5]nonan-2-yl]methyl]-6-methyl-morpholin-4-yl]quinoline-8-carbonitrile]
19 | 9 | Cc1cc(N2CCN(C[C@H]3CN(c4ccc(C#N)c5ncccc45)C[C@@H](C)O3)[C@@H](C)C2)cc(CO)n1 [Example 4A]
20 | 10 | Cc1cc(N2CCN(C[C@H]3CN(c4ccc(C#N)c5ncccc45)C[C@@H](C)O3)[C@H](C)C2)cc(CO)n1 [Example 4B]
21 | 26 | Cc1cc(NC2CN(C[C@H]3CN(c4ccc(C#N)c5ncccc45)C[C@@H](C)O3)C2)cc(C)n1 [Example 7]
22 | 7 | Cc1cc(N2CCC23CN(C[C@H]2CN(c4ccc(C#N)c5ncccc45)C[C@@H](C)O2)C3)cc(C)n1 [Example 8]
23 | 16 | Cc1cc(N2CCC3(CN(C[C@H]4CN(c5ccc(C#N)c6ncccc56)C[C@@H](C)O4)C3)C2)cc(C)n1 [Example 9]
24 | 8 | Cc1cc(N(C)C2CN(C[C@H]3CN(c4ccc(C#N)c5ncccc45)C[C@@H](C)O3)C2)cc(C)n1 [Example 11]
25 | 13 | Cc1cc(N2CCC23CN(C[C@H]2CN(c4ccc(C#N)c5ncccc45)C[C@@H](C)O2)C3)cc(CO)n1 [Example 12]
26 | < 3 | Cc1cc(N2CCOC3(CN(C[C@H]4CN(c5ccc(C#N)c6ncccc56)C[C@@H](C)O4)C3)C2)cc(C)n1 [Example 14]
27 | 7 | Cc1cc(N2CCC23CN(C[C@H]2CN(c4ccc(C#N)c5ncccc45)C[C@@H](C)O2)C3)ccn1 [Example 15]
28 | < 3 | Cc1cc(N2CCOC3(CN(C[C@H]4CN(c5ccc(C#N)c6ncccc56)C[C@@H](C)O4)C3)C2)ccn1 [Example 16]
29 | 6 | C[C@@H]1CN(c2ccc(C#N)c3ncccc23)C[C@H](CN2CCN(c3ccnc(N)c3)CC2)O1 [Example 19, 5-[(2S,6R)-2-[[4-(2-amino-4-pyridyl)piperazin-1-yl]methyl]-6-methyl-morpholin-4-yl]quinoline-8-carbonitrile]
30 | 12 | Cc1cc(N2CC[C@H](F)[C@H](NC[C@H]3CN(c4ccc(C#N)c5ncccc45)C[C@@H](C)O3)C2)cc(CO)n1 [Example 33]
31 | 12 | Cc1cc(N2CC[C@@H](F)[C@H](NC[C@H]3CN(c4ccc(C#N)c5ncccc45)C[C@@H](C)O3)C2)cc(CO)n1 [Example 34]
32 | 17 | Cc1cc(N2CCC[C@@H](N(C)C[C@H]3CN(c4ccc(C#N)c5ncccc45)C[C@@H](C)O3)C2)cc(CO)n1 [Example 35]
33 | 17 | Cc1cc(N2CC(NC[C@H]3CN(c4ccc(C#N)c5ncccc45)C[C@@H](C)O3)CC(F)(F)C2)cc(CO)n1 (stereo partly drawn) [Example 36]
34 | 8 | Cc1cc(N2CCN(C[C@H]3CN(c4ccc(C#N)c5ncccc45)C[C@@H](C)O3)CC2)cc(N)n1 [Example 40, 5-[(2S,6R)-2-[[4-(2-amino-6-methyl-4-pyridyl)piperazin-1-yl]methyl]-6-methyl-morpholin-4-yl]quinoline-8-carbonitrile]
35 | 13 | CNc1cc(N2CCN(C[C@H]3CN(c4ccc(C#N)c5ncccc45)C[C@@H](C)O3)CC2)cc(C)n1 [Example 42, 5-[(2R,6S)-2-methyl-6-[[4-[2-methyl-6-(methylamino)-4-pyridyl]piperazin-1-yl]methyl]morpholin-4-yl]quinoline-8-carbonitrile]
36 | 7 | Cc1cc(C2CCN(C[C@H]3CN(c4ccc(C#N)c5ncccc45)C[C@@H](C)O3)CC2)cc(N)n1 [Example 43, 5-[(2S,6R)-2-[[4-(2-amino-6-methyl-4-pyridyl)-1-piperidyl]methyl]-6-methyl-morpholin-4-yl]quinoline-8-carbonitrile]
